Test results published in publication PMC5849061 (European journal of medicinal chemistry, 2018).
In brackets after ≈: the same amount, converted by molar mass.

Key:
MRSA USA400 = experiment: Time-kill assay against MRSA USA400; details: 4 × MIC; for kill kinetics (in words): MRSA USA400
[1] = test system: human colorectal cells (HRT-18); experiment: Cytotoxicity against human colorectal; details: HRT-18 cells, two hours, MTS; tested 16, 32, 64 μg/mL
[2] = test system: MRSA USA400 inside infected macrophage (J774) cells; experiment: Clearance of intracellular MRSA in infected J774 macrophages; assay type: cell-based, Staphylococcus aureus; details: 24 hours
[3] = test system: murine macrophage (J774) cells; experiment: Cytotoxicity against J774 macrophage cells; assay type: cell-based; details: 24-hour incubation, MTS, tested 8, 16, 32 μg/mL
human FPPS (HsFPPS) = molecular target: T1, human FPPS (HsFPPS) (Homo sapiens, UniProt P14324); experiment: Human FPPS inhibition; assay type: biochemical; details: data not shown
T1 sequence (P14324 1-419): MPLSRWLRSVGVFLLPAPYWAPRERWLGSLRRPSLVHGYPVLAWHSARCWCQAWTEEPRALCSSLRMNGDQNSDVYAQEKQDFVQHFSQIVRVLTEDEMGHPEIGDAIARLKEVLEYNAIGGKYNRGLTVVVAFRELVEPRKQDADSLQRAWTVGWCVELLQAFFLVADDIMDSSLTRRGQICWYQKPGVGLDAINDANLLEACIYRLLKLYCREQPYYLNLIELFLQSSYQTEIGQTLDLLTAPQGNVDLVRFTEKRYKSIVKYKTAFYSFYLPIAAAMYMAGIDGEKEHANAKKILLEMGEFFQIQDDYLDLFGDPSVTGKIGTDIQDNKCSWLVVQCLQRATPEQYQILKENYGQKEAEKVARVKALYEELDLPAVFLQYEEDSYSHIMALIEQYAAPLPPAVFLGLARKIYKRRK

Caco-2 cells = experiment: Caco-2 bidirectional permeability assay; assay type: in vitro ADME, human
[4] = Metabolic stability in pooled human liver microsomes; assay type: in vitro ADME; details: for Notes (metabolic stability classification): HLM
[5] = In vivo pharmacokinetics in rat, single IV bolus; parameters: species or system Sprague-Dawley rats; details: male, Sprague-Dawley, plasma, 2 μM solution, t1/2, rat, two-compartment model
[6] = test system: PMF in E. coli inverted membrane vesicles (IMVs); experiment: IMV protonophore uncoupler assay
VRS11a (VRSA) = experiment: Broth microdilution MIC/MBC against VRS11a; assay type: cell-based; details: Staphylococcus aureus
MRSA USA300 = experiment: Time-kill assay against MRSA USA300; details: 4 × MIC
[7] = human, pooled human liver microsomes, pH 7.4

C/C(=N\NC(=N)N)c1sc(-c2ccc(C#Cc3ccccc3)cc2)nc1C [Compound 5]
kill kinetics (in words) (MRSA USA400): bacteriostatic | non-toxic up to (concentration) [1]: 32 µg/mL

C/C(=N\NC(=N)N)c1sc(-c2ccc(C#CC3CCCCC3)cc2)nc1C [Compound 6, 2-(1-(2-(4-(Cyclohexylethynyl)phenyl)-4-methylthiazol-5-yl)ethylidene)hydrazine-1-carboximidamide]
reduction of the burden of intracellular MRSA ([2]; 16 μg/mL): neither the alicyclic-containing derivatives 6, 7 or 9 (4 × MIC) nor vancomycin (4 × MIC) were able to produce a significant reduction | non-toxic up to (concentration) [1]: 32 µg/mL

C/C(=N\NC(=N)N)c1sc(-c2ccc(C#CC3CCCC3)cc2)nc1C [Compound 7, 2-{1-[2-(4-(Cyclopentylethynyl)phenyl)-4-methylthiazol-5-yl]ethylidene} hydrazine-1-carboximidamide]
non-toxic to macrophage cells up to a concentration of [3]: 8 µg/mL | reduction of the burden of intracellular MRSA ([2]; 8 μg/mL (4 × MIC)): neither the alicyclic-containing derivatives 6, 7 or 9 (4 × MIC) nor vancomycin (4 × MIC) were able to produce a significant reduction | reduction in MRSA CFU/mL after 8 hours (MRSA USA400; 8 hours, re-growth thereafter): ~3 log10 | non-toxic up to (concentration) [1]: 32 µg/mL

C/C(=N\NC(=N)N)c1sc(-c2ccc(C#CC3CC3)cc2)nc1C [Compound 9, 2-(1-(2-(4-(Cyclopropylethynyl)phenyl)-4-methylthiazol-5-yl)ethylidene) hydrazine-1-carboximidamide]
non-toxic to macrophage cells up to a concentration of [3]: 8 µg/mL | reduction of the burden of intracellular MRSA ([2]; 8 μg/mL (4 × MIC)): neither the alicyclic-containing derivatives 6, 7 or 9 (4 × MIC) nor vancomycin (4 × MIC) were able to produce a significant reduction | inhibition of HsFPPS (human FPPS (HsFPPS)): no inhibition | Notes (permeability classification) (Caco-2 cells): Low permeability | Notes (metabolic stability classification) [4]: Stable to metabolism | half-life at 0.1 μM [4, 7]: 4.8 h | microsomal CLint at 0.1 μM [4, 7]: < 116 µL/min/mg | half-life [5]: ~4.5 h | time to complete eradication of MRSA USA400 (MRSA USA400): 24 h | kill kinetics (in words) (MRSA USA400): slow bactericidal activity | non-toxic up to (concentration) [1]: 32 µg/mL | EC50 for PMF collapse (corresponding mass concentration) ([6]; ATP-powered PMF generation): 8 µg/mL | EC50 for PMF collapse (corresponding mass concentration) ([6]; succinate/O2-powered PMF generation): 9.5 µg/mL

CCCC#Cc1ccc(-c2nc(C)c(/C(C)=N/NC(=N)N)s2)cc1 [Compound 10, 2-(1-(4-Methyl-2-(4-(pent-1-yn-1-yl)phenyl)thiazol-5-yl)ethylidene)hydrazine-1-carboximidamide]
MIC (VRS11a (VRSA)): 0.5 µg/mL (≈ 1.47 µM) | non-toxic to macrophage cells up to a concentration of [3]: 16 µg/mL | reduction of the burden of intracellular MRSA ([2]; 16 μg/mL): complete eradication | kill kinetics (in words) (MRSA USA300): rapid bactericidal activity | non-toxic up to (concentration) [1]: 32 µg/mL

CCCCCC#Cc1ccc(-c2nc(C)c(/C(C)=N/NC(=N)N)s2)cc1 [Compound 11, 2-(1-(2-(4-(Hep-1-yn-1-yl)phenyl)-4-methylthiazol-5-yl)ethylidene)hydraz-ine-1-carboximidamide]
non-toxic to macrophage cells up to a concentration of [3]: 16 µg/mL | reduction of the burden of intracellular MRSA ([2]; 16 μg/mL): complete eradication | kill kinetics (in words) (MRSA USA300): rapid bactericidal activity | non-toxic up to (concentration) [1]: 32 µg/mL

CCCCCCC#Cc1ccc(-c2nc(C)c(/C(C)=N/NC(=N)N)s2)cc1 [Compound 12]
non-toxic up to (concentration) [1]: 32 µg/mL

C/C(=N\NC(=N)N)c1sc(-c2ccc(C#CC(C)(C)C)cc2)nc1C [Compound 13, 2-(1-(2-(4-(3,3-Dimethylbut-1-yn-1-yl)-phenyl)-4-methylthiazol-5-yl)ethylidene) hydrazine-1-carboximidamide]
non-toxic up to (concentration) [1]: 32 µg/mL

C/C(=N\NC1=NCCN1)c1sc(-c2ccc(C#CC3CC3)cc2)nc1C [Compound 19, 2-(4-(Cyclopropylethynyl)phenyl)-5-(1-(2-(4,5-dihydro-1H-imidazol-2-yl)hydrazono)ethyl)-4-methylthiazole]
Notes (metabolic stability classification) [4]: Stable to metabolism

C/C(=N\NC1=NCCN1)c1sc(-c2ccc(C#CC(C)(C)C)cc2)nc1C [Compound 23, 5-(1-(2-(4,5-Dihydro-1H-imidazol-2-yl)hydrazono)ethyl)-2-(4-(3,3-dimethylbut-1-yn-1-yl)phenyl)-4-methylthiazole]
non-toxic up to (concentration) [1]: 32 µg/mL

CN[C@H](CC(C)C)C(=O)N[C@H]1C(=O)N[C@@H](CC(N)=O)C(=O)N[C@H]2C(=O)N[C@H]3C(=O)N[C@H](C(=O)N[C@H](C(=O)O)c4cc(O)cc(O)c4-c4cc3ccc4O)[C@H](O)c3ccc(c(Cl)c3)Oc3cc2cc(c3O[C@@H]2O[C@H](CO)[C@@H](O)[C@H](O)[C@H]2O[C@H]2C[C@](C)(N)[C@H](O)[C@H](C)O2)Oc2ccc(cc2Cl)[C@H]1O [Vancomycin, reference compound]
time to complete eradication of MRSA USA400 (MRSA USA400): 24 h
